Reference: patent US20240245653A1, “PHARMACEUTICAL FORMULATIONS” (SPEPHARM AG, priority 2021, published 2024)
Read-outs that look alike come from different tables or passages of the source.

Tests used:
[1] = Dantrolene sodium solubility in water only solutions of HPBCD (visual inspection); assay type: physicochemical; details: for solubility: aqueous with cosolvent or surfactant or cyclodextrin; for Maximum concentration of dantrolene sodium that could be dissolved: <2 μm particle size
Description: This study was performed to determine the impact of HPBCD on the solubility of dantrolene Sodium. An initial comparison of different HPBCDs was carried out using HP5 and HP7 substituted variants (Cavitron™ W7, Ashland, Inc.), which have a typical degree of substitution (average number of hydroxypropyl groups per cyclodextrin molecule) of 4.1-5.1 and 6.0-8.0 respectively. (Equivalent products, such as Kleptose® HPB (Roquette), which is a low endotoxin burden (<10 IU/g) HP5 substituted β-cyclodextrin with typical molar substitution (i.e. per anhydro glucose subunit) of 0.65 (range 0.58 to 0.68), are also available for commercial scale manufacturing.)
Due to the larger molecular weight of the HP7 variant, more weight of excipient was required to achieve the same molar equivalent concentration compared with the HP5 variant. Overall, HP5 substituted β-cyclodextrin was preferred and it was therefore used for subsequent test formulations.
Further analysis was performed to determine the maximum possible concentration of dantrolene sodium, at different particle sizes, in water only solutions of HP5 substituted β-cyclodextrin. Commercially available samples of dantrolene sodium having particle sizes of <2 μm and <63 μm were tested. […] Results are shown in Table 1 below; DNa denotes dantrolene sodium.

[2] = Dantrolene sodium solubility with HPBCD and parenteral-compatible co-solvent addition (visual inspection); assay type: physicochemical; details: for Result (assessed by visual inspection): 7 Mol equivalent HP5 HPBCD solution
Description: This experiment was performed to determine the effects of different parenteral-compatible alcohol- and ketone-based co-solvents on dantrolene sodium solubility, in a 7 Mol equivalent HP5 substituted HPBCD solution. The results are shown in Table 2 below; DNa denotes dantrolene sodium.

In the case of `O=C1CN(/N=C/c2ccc(-c3ccc([N+](=O)[O-])cc3)o2)C([O-])=N1.[Na+]` [DNa, dantrolene sodium], the “Result (assessed by visual inspection)” value ([1]; DNa 4.46 mg/mL anhydrous salt equivalent (5.16 mg/mL hemiheptahydrate equivalent), particle size <2 μm, 7 molar equivalent HP5 HPBCD, water only) is reported as “Complete solution”, the “Result (assessed by visual inspection)” value ([1]; DNa 4.5 mg/mL anhydrous salt equivalent (5.33 mg/mL hemiheptahydrate equivalent), particle size <2 μm, 7 molar equivalent HP5 HPBCD, water only) is reported as “Complete solution” and the “Result (assessed by visual inspection)” value ([1]; DNa 4.5 mg/mL anhydrous salt equivalent (5.35 mg/mL hemiheptahydrate equivalent), particle size <63 μm, 7 molar equivalent HP5 HPBCD, water only) is reported as “Complete solution”. For the same molecule, the “Result (assessed by visual inspection)” value ([1]; DNa 4.55 mg/mL anhydrous salt equivalent (5.36 mg/mL hemiheptahydrate equivalent), particle size <2 μm, 7 molar equivalent HP5 HPBCD, water only) was “Complete solution”, the “Result (assessed by visual inspection)” value ([1]; DNa 4.6 mg/mL anhydrous salt equivalent (5.40 mg/mL hemiheptahydrate equivalent), particle size <2 μm, 7 molar equivalent HP5 HPBCD, water only) was “Slightly Hazy Solution (Incomplete)” and the “Result (assessed by visual inspection)” value ([1]; DNa 4.65 mg/mL anhydrous salt equivalent (5.47 mg/mL hemiheptahydrate equivalent), particle size <2 μm, 7 molar equivalent HP5 HPBCD, water only) was “Hazy Solution (Incomplete)”. For the same molecule, the “Result (assessed by visual inspection)” value ([1]; DNa 4.75 mg/mL anhydrous salt equivalent (5.58 mg/mL hemiheptahydrate equivalent), particle size <2 μm, 7 molar equivalent HP5 HPBCD, water only) was “Hazy Solution (Incomplete)”, the “Result (assessed by visual inspection)” value ([1]; DNa 4.75 mg/mL anhydrous salt equivalent (5.66 mg/mL hemiheptahydrate equivalent), particle size <63 μm, 7 molar equivalent HP5 HPBCD, water only) was “Hazy Solution (Incomplete)” and the “Result (assessed by visual inspection)” value ([1]; DNa 5.0 mg/mL anhydrous salt equivalent (5.95 mg/mL hemiheptahydrate equivalent), particle size <2 μm, 7 molar equivalent HP5 HPBCD, water only) was “Hazy Solution (Incomplete)”. For the same molecule, the solubility ([1]; hemiheptahydrate equivalent, 9 Mol equivalents of HPBCD, HP5 variant, purified water, read-out: Solubility of dantrolene sodium) was 8500 µg/mL, the solubility ([1]; hemiheptahydrate equivalent, 9 Mol equivalents of HPBCD, HP7 variant, purified water, read-out: Solubility of dantrolene sodium) was 8500 µg/mL and the solubility ([1]; thermodynamic from solid, as anhydrous salt equivalent, <63 μm particle size, 7 molar equivalent HP5 HPBCD, water only, read-out: Solubility (maximum concentration of dantrolene sodium that could be dissolved)) was 4500 µg/mL. For the same molecule, the “Maximum concentration of dantrolene sodium that could be dissolved” value ([1]; as anhydrous salt equivalent, 7 molar equivalent HP5 HPBCD, water only) was 4.55 mg/mL, the “Maximum concentration of dantrolene sodium that could be dissolved” value ([1]; as hemiheptahydrate equivalent, 7 molar equivalent HP5 HPBCD, water only) was 5.36 mg/mL and the “Solubility (maximum concentration of dantrolene sodium that could be dissolved)” value ([1]; as hemiheptahydrate equivalent, <63 μm particle size, 7 molar equivalent HP5 HPBCD, water only) was 5350 µg/mL. For the same molecule, the “Result (assessed by visual inspection)” value ([2]; DNa 4.5 mg/mL anhydrous salt equivalent, Benzyl Alcohol 1%) was “Moderate Excess”, the “Result (assessed by visual inspection)” value ([2]; DNa 4.5 mg/mL anhydrous salt equivalent, Ethanol Abs. 1%) was “Hazy - Small Excess” and the “Result (assessed by visual inspection)” value ([2]; DNa 4.5 mg/mL anhydrous salt equivalent, Glycerol 5.18%) was “Hazy - Small Excess”. The “Result (assessed by visual inspection)” value ([2]; DNa 4.5 mg/mL anhydrous salt equivalent, N,N-Dimethyl-formamide 2%) was “Hazy - Small Excess”, the “Result (assessed by visual inspection)” value ([2]; DNa 4.5 mg/mL anhydrous salt equivalent, Polyethylene Glycol 300 (PEG-300) 5%) was “Hazy - Small Excess” and the “Result (assessed by visual inspection)” value ([2]; DNa 4.5 mg/mL anhydrous salt equivalent, Polyethylene Glycol 400 (PEG-400) 5%) was “Hazy - Small Excess”. The “Result (assessed by visual inspection)” value ([2]; DNa 4.5 mg/mL anhydrous salt equivalent, Propylene Glycol 5%) was “Moderate Excess”, the “Result (assessed by visual inspection)” value ([2]; DNa 4.5 mg/mL anhydrous salt equivalent, Tert-Butanol 5%) was “Large Excess” and the “Result (assessed by visual inspection)” value ([2]; DNa 4.5 mg/mL anhydrous salt equivalent, Tetrahydrofuran 2%) was “Large Excess”. The “Result (assessed by visual inspection)” value ([2]; DNa 4.55 mg/mL anhydrous salt equivalent, N-Methyl-pyrrolidone 2, 4, 6%) was “Hazy - Small Excess”, the “Result (assessed by visual inspection)” value ([2]; DNa 4.75 mg/mL anhydrous salt equivalent, Tert-Butanol 5%) was “Large Excess” and the “Result (assessed by visual inspection)” value ([2]; DNa 5.0 mg/mL anhydrous salt equivalent, Benzyl Alcohol 2%) was “Large Excess”. The “Result (assessed by visual inspection)” value ([2]; DNa 5.0 mg/mL anhydrous salt equivalent, Ethanol Abs. 20%) was “Large Excess”, the “Result (assessed by visual inspection)” value ([2]; DNa 5.0 mg/mL anhydrous salt equivalent, Tert-Butanol 10%) was “Large Excess” and the “Result (assessed by visual inspection)” value ([2]; DNa 5.0 mg/mL anhydrous salt equivalent, Tert-Butanol 20%) was “Large Excess”. The “Effect of parenteral-compatible alcohol- or ketone-based solvents on dantrolene solubility in the presence of HPBCD” value ([2]; all 15 of the solvents tested, including PEG 300 and PEG 400) was “reduced dantrolene solubility”.
